Measurements taken from patent US8933035B2, “Transglutaminase-activating peptide and cosmetic or pharmaceutical composition containing same” (ISP Investments Inc., priority 2009, dated 2015).

Tests used:
[1] = system: transglutaminases; test: total enzyme activity of transglutaminases in normal human keratinocytes (fluorescein-labelled cadaverine substrate); assay type: cell-based; settings: NHKs, 0.5 ppm
Procedure: The objective of this study was to determine the influence of peptide SEQ ID NO: 5 on the total activity of transglutaminases in normal human keratinocytes (NHKs). To this end, the total enzyme activity of transglutaminases was assayed by spectrophotometry by means of an amino acid donor substrate, the amino acids being labelled with fluorescein.
NHKs were placed in black 96-well plates. After four days of culture, the NHKs were treated with a 1% solution of a mother solution containing 50 ppm of peptide SEQ ID NO: 5 for 24 or 48 hours (the active ingredient was added every 24 hours). A positive control was created by treating the cells with EGCG (epigallocatechin gallate, the main polyphenol ingredient in green tea) at a concentration of 20 μg/ml. The substrate used was cadaverine labelled with fluorescein (Invitrogen A10466) diluted to 100 μM in the culture medium. […] After two rinses in ethanol, then three rinses in the HBSS buffer, 100 μl of PBS were added to each well and a reading was taken by spectrophotometer at excitation wavelengths of 485 nm and emission wavelengths of 530 nm. Under these conditions, the transglutaminase activity was proportional to the amount of fluorescence emitted (expressed in fluorescence units), based on the total amount of proteins present in each well, previously assayed by the BCA technique.

[2] = system: TG1; test: immunofluorescence labelling of TG1 in cultured normal human keratinocytes; assay type: cell-based; settings: 0.5 ppm, 24 hours
Procedure: (§1) The objective of this study was to determine the influence of peptide SEQ ID NO: 5 on the expression of the different transglutaminases expressed in the human skin. To this end, a culture of normal human keratinocytes (NHKs) and a skin biopsy were subjected to specific labellings by immunofluorescence. Cultures of normal human fibroblasts were also labelled by immunofluorescence, specifically for TG2, which is expressed in these types of cell. Cultured NHKs were treated with a 1% solution of a mother solution containing 50 ppm of peptide SEQ ID NO: 5 for 24 hours. For immunolabelling by the anti-TG1 antibody, the cells were washed and fixed with 3.7% paraformaldehyde for 10 minutes. The cells were then incubated in the presence of a specific anti-TG1 antibody (Clinisciences BT-621, mouse monoclonal), then in the presence of a suitable secondary antibody coupled to a fluorescent marker. For the other immunolabellings, the cells were washed and fixed with cold methanol for 1 minute. The cells were then incubated in the presence of a specific antibody; anti-TG2 (ABCAM® ab2972 antibody, rabbit polyclonal), anti-TG3 (ABCAM® ab53236 antibody, mouse monoclonal) or anti-TG5 (ABCAM® ab26992 antibody, rabbit polyclonal). After mounting in a medium ad hoc, the slides were observed under epifluorescence microscope (ECLIPSE® E 80i microscope by Nikon Corporation).

[3] = system: TG2; test: immunofluorescence labelling of TG2 in cultured normal human keratinocytes; assay type: cell-based; settings: 0.5 ppm, 24 hours
Procedure: as §1

[4] = system: TG3; test: immunofluorescence labelling of TG3 in cultured normal human keratinocytes; assay type: cell-based; settings: 0.5 ppm, 24 hours
Procedure: as §1

[5] = system: TG5; test: immunofluorescence labelling of TG5 in cultured normal human keratinocytes; assay type: cell-based; settings: 0.5 ppm, 24 hours
Procedure: as §1

[6] = system: TG2; test: immunofluorescence labelling of TG2 in cultured normal human fibroblasts; assay type: cell-based; settings: 0.5 ppm, 24 hours
Procedure: as §1, with “Corporation). […]” for “Corporation).”

[7] = system: TG1; test: immunolabelling of TG1 in ex vivo human skin biopsies; assay type: cell-based; settings: cultivated ex vivo skin biopsies, 0.5 ppm topically, 24 hours
Procedure: (§2) Biopsies of human skin were placed in culture at the air/liquid interface. A 1% solution of a mother solution containing 50 ppm of peptide SEQ ID NO: 5 was applied topically over 24 hours. For the labellings of TG1 and TG2, the skin biopsies were then enclosed in resin and frozen in nitrogen. Sections of approximately 6 μm were then made by cryostat. Immunolabelling was carried out by means of a specific antibody; anti-TG1 (Clinisciences BT-621, mouse monoclonal) or anti-TG2 (ABCAM® ab2972 antibody, rabbit polyclonal), then by means of a suitable secondary antibody coupled to a fluorescent marker. The skin sections were then examined under epifluorescence microscope (ECLIPSE® E 80i microscope by Nikon Corporation).

[8] = system: TG2; test: immunolabelling of TG2 in ex vivo human skin biopsies; assay type: cell-based; settings: cultivated ex vivo skin biopsies, 0.5 ppm topically, 24 hours
Procedure: as §2

[9] = system: TG3; test: immunolabelling of TG3 in ex vivo human skin biopsies; assay type: cell-based; settings: cultivated ex vivo skin biopsies, 0.5 ppm topically, 24 hours
Procedure: Biopsies of human skin were placed in culture at the air/liquid interface. A 1% solution of a mother solution containing 50 ppm of peptide SEQ ID NO: 5 was applied topically over 24 hours.
For the labellings of TG3, the skin biopsies were enclosed in paraffin and histological sections 3 μm thick were made. The slides were deparaffined, hydrated, then immunolabelled by an antibody directed against TG3 (ABCAM® ab53236 antibody, mouse monoclonal), then by a suitable secondary antibody coupled to a fluorescent marker. The skin sections were then examined under epifluorescence microscope (ECLIPSE® E 80i microscope by Nikon Corporation).

[10] = system: pankeratins; test: immunolabelling of epidermal differentiation marker pankeratins; assay type: cell-based, human; settings: 0.5 ppm, 24 hours; labelled in skin biopsies
Text: (§3) The objective of this study was to determine the influence of peptide SEQ ID NO: 5 on epidermal differentiation. To this end, the expression of the main markers of epidermal differentiation, expressed specifically in the keratinocytes in the suprabasal layers, were studied. The tested markers are transglutaminase 1, pankeratins, filaggrin, involucrin and loricrin. On the other hand, filaggrin, involucrin and loricrin are precursors of the cornified envelope and of transglutaminase substrates.
(§4) Biopsies of human skin were placed in culture at the air/liquid interface. A 1% solution of a mother solution containing 50 ppm of peptide SEQ ID NO: 5 was applied topically over 24 hours. The biopsies were then enclosed in paraffin and histological sections 3 μm thick were made. The slides were deparaffined, hydrated, then immunolabelled by an antibody directed against TG1 (Clinisciences BT-621, mouse monoclonal) or cyto-pankeratins (NOVOCASTRA® NCL-CK10 antibody, mouse monoclonal), or loricrin (ABCAM® ab24722 antibody, rabbit polyclonal), or involucrin (NOVOCASTRA® NCL-INV antibody, clone SY5, mouse monoclonal) or filaggrin (Tebu Santa Cruz sc-58761, mouse monoclonal). For easier observation, the rings of the cells can be counter-stained by DAPI (4′,6′ di amidine-2-phenyl indole, a blue fluorescent molecule capable of binding strongly to DNA). […]

[11] = system: involucrin; test: immunolabelling of epidermal differentiation marker involucrin; assay type: cell-based, human; settings: 0.5 ppm, 24 hours; cultured NHKs and skin biopsies
Text: as §3
(§5) Cultured NHKs were treated with a 1% solution of a mother solution containing 50 ppm of peptide SEQ ID NO: 5 for 24 hours. The cells were then washed and fixed with 3.7% paraformaldehyde for 10 minutes. After unmasking of specific sites, the cells were incubated in the presence of a specific antibody directed against TG1 (Clinisciences BT-621, mouse monoclonal), or against loricrin (ABCAM® ab24722 antibody, rabbit polyclonal), or involucrin (NOVOCASTRA® NCL-INV antibody, mouse monoclonal, clone SY5), then incubated in the presence of a suitable secondary antibody coupled to a fluorescent marker. For easier observation, the rings of the cells can be counter-stained by DAPI (4′,6′ di amidine-2-phenyl indole), a blue fluorescent molecule capable of binding strongly to DNA). […]

[12] = system: filaggrin; test: immunolabelling of epidermal differentiation marker filaggrin; assay type: cell-based, human; settings: 0.5 ppm, 24 hours; labelled in skin biopsies
Text: as §3, §4

[13] = system: loricrin; test: immunolabelling of epidermal differentiation marker loricrin; assay type: cell-based, human; settings: 0.5 ppm, 24 hours; cultured NHKs and skin biopsies
Text: as §3, §5

[14] = system: TG1; test: immunolabelling of epidermal differentiation marker TG1; assay type: cell-based, human; settings: 0.5 ppm, 24 hours; cultured NHKs and skin biopsies
Text: as §3, §5

[15] = system: TG1; test: immunoblot of TG1 in cultured NHKs; assay type: cell-based, human; settings: 1% of 50 ppm mother solution, 24 hours
Procedure: (§6) Cultured NHKs were treated with a 1% solution of a mother solution containing 50 ppm of peptide SEQ ID NO: 5 for 24 hours. The cells were then rinsed and detached from the support by scraping in a RIPA buffer in the presence of a cocktail of protease inhibitors (Thermo Scientific, Rockford, USA). The lysed cells were centrifuged at 4° C. at 10,000 rpm for 20 minutes and the supernatants were collected. The samples were then standardised by assaying of the proteins by BCA kit (Pierce, France). The samples were mixed, then subjected to electrophoresis on NUPAGE® 3-8% tris-acetate gel in a NuPAGE NUPAGE® tris-acetate migration buffer, then blotted on a membrane of nitrocellulose by means of a blotting device (Invitrogen, Paisley, UK). The membranes were saturated in 5 TBS milk for 2 hours at ambient temperature, then incubated at 4° C. overnight with a primary antibody directed against TG1 (Clinisciences BT-621, monoclonal mouse) or against involucrin (NOVOCASTRA®NCL-INV antibody, clone SY5, mouse monoclonal) or against loricrin (ABCAM® ab24722 antibody, rabbit polyclonal). After washing by 0.05% TBS-Tween buffer, the membrane was incubated with a suitable secondary antibody coupled to peroxidase. The blots were then developed by means of a chemiluminescent substrate (SuperSignal West Dura Extended Duration Substrate, Pierce, Brebiere, France).

[16] = system: involucrin; test: immunoblot of involucrin in cultured NHKs; assay type: cell-based, human; settings: 1% of 50 ppm mother solution, 24 hours
Procedure: as §6

[17] = system: loricrin; test: immunoblot of loricrin in cultured NHKs; assay type: cell-based, human; settings: 1% of 50 ppm mother solution, 24 hours
Procedure: as §6

[18] = system: biopsies of human skin; test: epidermal differentiation, morphology of skin sections ex vivo; assay type: cell-based; settings: 0.5 ppm topically, 24 hours
Procedure: Biopsies of human skin were placed in culture at the air/liquid interface. A 1% solution of a mother solution containing 50 ppm of peptide SEQ ID NO: 5 was applied topically over 24 hours. The biopsies were then enclosed in paraffin and histological sections 3 μm thick were made. The slides were deparaffined, hydrated, then immunolabelled by an antibody directed against TG1 (Clinisciences BT-621, mouse monoclonal) or cyto-pankeratins (NOVOCASTRA® NCL-CK10 antibody, mouse monoclonal), or loricrin (ABCAM® ab24722 antibody, rabbit polyclonal), or involucrin (NOVOCASTRA® NCL-INV antibody, clone SY5, mouse monoclonal) or filaggrin (Tebu Santa Cruz sc-58761, mouse monoclonal). For easier observation, the rings of the cells can be counter-stained by DAPI (4′,6′ di amidine-2-phenyl indole, a blue fluorescent molecule capable of binding strongly to DNA). A suitable secondary antibody coupled to a fluorescent marker was then used. After mounting in a medium ad hoc, the slides were observed under epifluorescence microscope (ECLIPSE® E 80i microscope by Nikon Corporation).

[19] = system: human fibroblasts; test: Ibidi in vitro healing model of fibroblast regeneration; assay type: cell-based; settings: 0.5 ppm and 1.5 ppm
Procedure: The Ibidi in vitro healing model was used (Biovalley, Marne la Vallée, France). Human fibroblasts were sown in two separate compartments of an Ibidi insert, which was then placed in a culture dish. On confluence, the insert was removed, thus creating an acellular zone measuring 400 μm wide between the two cellular lawns. The peptide diluted to 1% and 3% from a mother solution containing 50 ppm of peptide SEQ ID NO: 5 was then added to the culture medium, and the treatment was carried out for 48 hours with renewal of the active ingredient every 24 hours. Inspection by phase contrast microscopy (Olympus CK40 microscope, ×5, connected to an Olympus E-510 camera) was carried out at different times (0 to 48 hours) during the migration process.

[20] = system: biopsies of human skin; test: study of epidermal regeneration, histology of skin biopsies; assay type: cell-based; settings: 1% of 50 ppm mother solution topically, 24 hours
Procedure: Biopsies of human skin were placed in culture at the air/liquid interface. A 1% solution of a mother solution containing 50 ppm of peptide SEQ ID NO: 5 was applied topically, then the samples were incubated for 24 hours. The skin biopsies were then enclosed in paraffin and histological sections 3 μm thick were made. The sections were deposited on Superfrost Plus slides (Menzel Glaser, Thermo Scientific), then deparaffined in xylene and rehydrated in a series of alcohol-water solutions. The sections were then stained by 50% haematoxylin for 3 minutes, rinsed, then stained with 60% eosin for 3 minutes and rinsed in water. The sections were then dehydrated, mounted in Eukitt and examined by optical microscopy.

## SEQ ID NO: 5 (RRGQ)
[1]; after 24 hours
  increase in total transglutaminase enzyme activity compared to the untreated control: 30%
[1]; after 48 hours
  increase in total transglutaminase enzyme activity compared to the untreated control: 47.7%
[2]
  expression of TG1 (immunofluorescence): stimulates the expression
[3]
  expression of TG2 (immunofluorescence): stimulates the expression
[4]
  expression of TG3 (immunofluorescence): stimulates the expression
[5]
  expression of TG5 (immunofluorescence): stimulates the expression
[6]
  expression of TG2 (immunofluorescence): stimulates the expression
[7]
  expression of TG1 (immunofluorescence): stimulates the expression
[8]
  expression of TG2 (immunofluorescence): stimulates the expression
[9]
  expression of TG3 (immunofluorescence): stimulates the expression
[10]
  expression of pankeratins (immunofluorescence): stimulates the expression
[11]
  expression of involucrin (immunofluorescence): stimulates the expression
[12]
  expression of filaggrin (immunofluorescence): stimulates the expression
[13]
  expression of loricrin (immunofluorescence): stimulates the expression
[14]
  expression of TG1 as differentiation marker (immunofluorescence): stimulates the expression
[15]
  increase in expression of TG1 (quantitative analysis of immunoblots): 20%
[16]
  increase in expression of involucrin (quantitative analysis of immunoblots): 30%
[17]
  increase in expression of loricrin (quantitative analysis of immunoblots): 16%
[18]
  epidermal differentiation, cornified layer morphology: thicker cornified layer
[19]
  dose dependence of the effect on fibroblast invasion: dose-dependent
[19]; 0 to 48 hours
  invasion of the acellular zone with fibroblasts compared to control: quicker
[20]
  cells of the basal layer in histological sections of epidermis: Greater density of the cells of the basal layer
  cornified layer in histological sections of epidermis: neo-synthesis of the cornified layer, which appears thicker and better hydrated
